MIC data for 9 compounds are collected here from DBAASP.

The structures appear in SMILES notation. Converted amounts (≈) assume the structure as drawn. Bounds are passed on as bounds.

Some test systems named below: Escherichia coli D31; Enterobacter cloacae; Klebsiella pneumoniae; Streptococcus pneumoniae; Citrobacter sp.; Staphylococcus aureus.
What all share (assay): ≥ marks a high value that may be exact or a test limit, other limits are often not marked, values filed in µg/mL are converted to µM
For assay [1], the system named is Staphylococcus aureus ATCC 27660.
Assay [2] has as its system Acinetobacter baumannii ATCC 19606.
Assay [3] relates to Bacillus subtilis ATCC 6051.
The test system of assay [4] is Pseudomonas aeruginosa PAO1.
Assay [5] relates to Candida albicans ATCC 24433.
The subject of assay [6] is Staphylococcus epidermidis ATCC 12228.
Assay [7] concerns Escherichia coli ATCC 25922.
The test system of assay [8] is Staphylococcus aureus NCTC 10788.
In assay [9] the test system is Klebsiella pneumoniae ATCC 43816.
The test system of assay [10] is Enterococcus faecalis NCTC 12697.
Assay [11] relates to Escherichia coli NCTC 10418.
The subject of assay [12] is Staphylococcus aureus NCTC 12493.
Assay [13] has as its system Candida albicans NCYC 1467.
Assay [14] concerns Acinetobacter baumannii ATCC 15308.
Assay [15] relates to Pseudomonas aeruginosa ATCC 15442.
The test system of assay [16] is Staphylococcus aureus ATCC 25923.
The subject of assay [17] is Pseudomonas aeruginosa ATCC 27853.

As to `CC(C)C[C@H](NC(=O)[C@H](C)N)C(=O)N[C@@H](Cc1c[nH]c2ccccc12)C(=O)N[C@@H](CCCN=C(N)N)C(=O)N[C@@H](CCCN=C(N)N)C(=O)N[C@@H](CC(C)C)C(=O)N[C@@H](CC(C)C)C(=O)N[C@@H](CCCN=C(N)N)C(=O)N[C@@H](CCCN=C(N)N)C(=O)N[C@@H](CC(C)C)C(=O)N[C@@H](CC(C)C)C(=O)N[C@@H](CCCN=C(N)N)C(=O)N[C@@H](CO)C(=O)N[C@@H](C)C(=O)N[C@@H](CCCN=C(N)N)C(=O)N[C@@H](CCCN=C(N)N)C(=O)N[C@@H](CC(C)C)C(=O)NCC(N)=O` [ALWRRLLRRLLRSARRLG], the MIC (in general, the smallest concentration in the dilution series that meets the test's criterion for growth inhibition) in assay [1] is 3.75 µM (≈ 8.48 µg/mL); in assay [2] it was 3.75 µM (≈ 8.48 µg/mL); in [3] it was 1.88 µM (≈ 4.24 µg/mL); with Escherichia coli D31, 1.88 µM (≈ 4.24 µg/mL); in [4], 7.5 µM (≈ 17 µg/mL).
Turning to `CC[C@H](C)[C@H](NC(=O)CNC(=O)[C@@H](NC(=O)[C@H](C)NC(=O)[C@@H](NC(=O)[C@H](CCCCN)NC(=O)[C@@H]1CCCN1C(=O)[C@@H](NC(=O)[C@H](CCSC)NC(=O)[C@H](CO)NC(=O)[C@H](Cc1ccccc1)NC(=O)[C@@H](N)Cc1ccccc1)[C@@H](C)CC)[C@@H](C)CC)[C@@H](C)O)C(=O)N[C@@H](C)C(=O)N[C@@H](CO)C(=O)N[C@@H](CC(C)C)C(=O)N[C@H](C(=O)N[C@@H](CCCCN)C(=O)N[C@@H](CC(=O)O)C(=O)N[C@@H](CC(C)C)C(N)=O)C(C)C` [FFSMIPKIATGIASLVKDL], the MIC in assay [5] is ≥ 100 µM; in [6] it was > 100 µM; in [7], > 100 µM.
Take `CC[C@H](C)[C@H](NC(=O)[C@H](C)NC(=O)[C@H](C)NC(=O)[C@@H]1CCCN1C(=O)[C@@H](NC(=O)[C@H](CC(C)C)NC(=O)[C@H](CCCCN)NC(=O)CNC(=O)[C@H](C)NC(=O)[C@@H](NC(=O)[C@H](CCCCN)NC(=O)[C@H](CC(C)C)NC(=O)[C@@H](NC(=O)[C@H](C)NC(=O)CNC(=O)[C@H](CC(C)C)NC(=O)[C@@H](N)Cc1ccccc1)C(C)C)C(C)C)C(C)C)C(=O)O` [FLGAVLKVAGKLVPAAI]: the MIC in [8], in [9], in [10], in [11], in [12] and in assay [13] was ≥ 512 µM in each case.
As to `CC[C@H](C)[C@H](NC(=O)[C@H](CCSC)NC(=O)[C@H](C)NC(=O)[C@@H]1CCCN1C(=O)[C@@H]1CCCN1C(=O)[C@H](CCCN=C(N)N)NC(=O)[C@H](CCCCN)NC(=O)[C@@H](NC(=O)[C@H](CC(C)C)NC(=O)CNC(=O)CNC(=O)[C@H](CC(C)C)NC(=O)[C@@H](N)Cc1ccccc1)[C@@H](C)CC)C(=O)N[C@H]1CSSC[C@@H](C(=O)O)NC(=O)[C@H](CCCCN)NC(=O)[C@H](CCCCN)NC(=O)[C@H](CCCN=C(N)N)NC(=O)[C@H](C(C)C)NC(=O)[C@H](C)NC1=O` [FLGGLIKRPPAMICAVRKKC], the MIC in [14] is ≥ 114 µM; in assay [15], ≥ 114 µM; against Enterobacter cloacae, ≥ 114 µM; in the assay on Klebsiella pneumoniae it was > 114 µM; against Streptococcus pneumoniae it was ≥ 114 µM; in the assay on Citrobacter sp., ≥ 114 µM. Further, the MIC (with Staphylococcus aureus; in assay [7]; in assay [16]) was > 114 µM each time.
Regarding `CC[C@H](C)[C@H](NC(=O)[C@H](CC(C)C)NC(=O)CNC(=O)CNC(=O)[C@H](CC(C)C)NC(=O)[C@@H](N)Cc1ccccc1)C(=O)N[C@@H](CCCCN)C(=O)N[C@@H](Cc1c[nH]c2ccccc12)C(=O)N1CCC[C@H]1C(=O)N[C@@H](Cc1c[nH]c2ccccc12)C(=O)N[C@@H](Cc1c[nH]c2ccccc12)C(=O)N1CCC[C@H]1C(=O)N[C@@H](Cc1c[nH]c2ccccc12)C(=O)N[C@@H](CCCN=C(N)N)C(=O)N[C@@H](CCCN=C(N)N)C(N)=O` [FLGGLIKWPWWPWRR], the MIC in assay [14] was 31.3 µM (≈ 62.5 µg/mL); in [15], 15.6 µM (≈ 31.2 µg/mL); in the assay with Enterobacter cloacae it was ≥ 125 µM; in the assay with Klebsiella pneumoniae, > 125 µM; with Streptococcus pneumoniae it was 3.91 µM (≈ 7.81 µg/mL); against Citrobacter sp., ≥ 125 µM. Also, the MIC (with Staphylococcus aureus; in assay [7]; in [16]) was 3.91 µM (≈ 7.81 µg/mL) each time.
Regarding `CC[C@H](C)[C@H](NC(=O)CNC(=O)[C@@H](NC(=O)[C@H](C)NC(=O)[C@@H](NC(=O)[C@H](Cc1cnc[nH]1)NC(=O)[C@@H]1CCCN1C(=O)[C@@H](NC(=O)[C@H](CC(C)C)NC(=O)[C@H](CO)NC(=O)[C@H](CC(C)C)NC(=O)[C@@H](N)Cc1ccccc1)[C@@H](C)CC)[C@@H](C)CC)[C@@H](C)O)C(=O)N[C@@H](C)C(=O)N[C@@H](C)C(=O)N[C@@H](CC(C)C)C(=O)N[C@@H](C)C(=O)N[C@@H](CCCCN)C(=O)N[C@@H](Cc1cnc[nH]1)C(=O)N[C@@H](CC(C)C)C(N)=O` [FLSLIPHIATGIAALAKHL], the MIC is ≥ 100 µM in assay [5], 12.5 µM (≈ 24.8 µg/mL) in assay [6] and 50 µM (≈ 99.3 µg/mL) in assay [7].
Consider `CC(C)C[C@H](NC(=O)[C@H](CCC(N)=O)NC(=O)[C@H](CCC(N)=O)NC(=O)[C@H](C)NC(=O)CNC(=O)[C@H](C)NC(=O)[C@H](CCCCN)NC(=O)CNC(=O)[C@@H](NC(=O)[C@H](CCC(N)=O)NC(=O)[C@H](CCCCN)NC(=O)[C@H](C)NC(=O)[C@H](CC(C)C)NC(=O)[C@H](Cc1ccc(O)cc1)NC(=O)[C@H](CCCCN)NC(=O)[C@H](C)NC(=O)CNC(=O)[C@H](C)NC(=O)[C@H](CCCCN)NC(=O)[C@H](Cc1ccccc1)NC(=O)[C@H](CC(C)C)NC(=O)[C@H](CO)NC(=O)[C@H](CO)NC(=O)[C@H](Cc1ccccc1)NC(=O)CN)C(C)C)C(N)=O` [GFSSLFKAGAKYLAKQVGKAGAQQL], for which the MIC in assay [8] was 8 µM (≈ 20.5 µg/mL); in assay [17], 32 µM (≈ 82.2 µg/mL); in [9], ≥ 128 µM; in [10], 8 µM (≈ 20.5 µg/mL); in [11], 8 µM (≈ 20.5 µg/mL); in [12] it was 16 µM (≈ 41.1 µg/mL). This compound also came in with an MIC in assay [13] of 16 µM (≈ 41.1 µg/mL).
As for `CC[C@H](C)[C@@H]1NC(=O)[C@H](C)NC(=O)[C@@H](NC(=O)[C@H](Cc2ccccc2)NC(=O)[C@H](Cc2c[nH]c3ccccc23)NC(=O)[C@H](CCCCN)NC(=O)[C@H](Cc2c[nH]c3ccccc23)NC(=O)[C@@H]2CCCN2C(=O)[C@H](CC(C)C)NC(=O)[C@H](Cc2ccccc2)NC(=O)[C@@H](N)CCCCN)CSSC[C@@H](C(=O)O)NC(=O)[C@H](CCCCN)NC(=O)[C@H](CCCCN)NC(=O)[C@H]([C@@H](C)O)NC1=O` [KFLPWKWFCAITKKC], the MIC in assay [8] was 8 µM (≈ 15.2 µg/mL); in assay [17], 64 µM (≈ 121 µg/mL); in assay [9], ≥ 32 µM; in assay [10], ≥ 256 µM; in [11], 16 µM (≈ 30.4 µg/mL); in [12], 8 µM (≈ 15.2 µg/mL). In assay [13], this compound displayed an MIC of 16 µM (≈ 30.4 µg/mL).
Regarding `CC(C)C[C@H](NC(=O)[C@@H](N)CC(C)C)C(=O)N1CCC[C@H]1C(=O)N[C@@H](Cc1c[nH]c2ccccc12)C(=O)N[C@@H](CCCCN)C(=O)N[C@@H](Cc1c[nH]c2ccccc12)C(=O)N1CCC[C@H]1C(=O)N[C@@H](Cc1c[nH]c2ccccc12)C(=O)N[C@@H](Cc1c[nH]c2ccccc12)C(=O)N[C@@H](CCCCN)C(=O)N[C@@H](Cc1c[nH]c2ccccc12)C(=O)N[C@@H](CCCN=C(N)N)C(=O)N[C@@H](CCCN=C(N)N)C(N)=O` [LLPWKWPWWKWRR], the MIC in assay [14] was ≥ 129 µM; in [15] it was 16.1 µM (≈ 31.2 µg/mL); against Enterobacter cloacae, ≥ 129 µM; in the assay on Klebsiella pneumoniae, > 129 µM; against Streptococcus pneumoniae it was 16.1 µM (≈ 31.2 µg/mL); against Citrobacter sp., ≥ 129 µM. Also, the MIC (against Staphylococcus aureus; in assay [7]; in assay [16]) was 16.1 µM (≈ 31.2 µg/mL) in each case.
